Test results taken from patent US10470986B2, “Resorcinol compounds for dermatological use” (Conopco, Inc., priority 2013, dated 2019).

Tests used:
MelanoDerm (Mel-300-B) = assay: Mattek 3D Skin Equivalents, MelanoDerm (Mel-300-B) assay; assay type: cell-based, human; conditions: every other day, 14 days
From the text: Many people at different stages of their life are concerned with the degree of pigmentation of their skin and may wish to reduce the skin darkening, or may wish to lighten or even-tone their natural skin color. The mechanism by which skin pigmentation is formed, melanogenesis, is particularly complex and schematically involves the following main steps: Tyrosine→L-Dopa→Dopaquinone→Dopachrome→Melanins. The first two reactions in this series are catalyzed by the enzyme tyrosinase. The activity of tyrosinase is promoted by the action of a-melanocyte stimulating hormone or UV rays. It is well established that a substance has a depigmenting effect if it acts directly on the vitality of the epidermal melanocytes where melanogenesis normally occurs and/or if it interferes with one of the stages in melanin biosynthesis. Pigmentation disorders can take a variety of forms like hyperpigmentation, hypopigmentation, and uneven pigmentation, and include but are not limited to melasma (mask of pregnancy or chloasma), liver spots (which often develop with age) and leukoderma such as vitiligo. […] The degree of pigmentation disorders of the skin in many cases increases with the age of the individuals. Because of the involvement of tyrosinase in melanogensis, tyrosinase inhibition assays are often used to screen potential skin lightening agents. Some mushroom tyrosinases (such as that from Agaricus bisporus) are homologous with mammalian tyrosinase, and mushroom tyrosinase is often used in inhibition assays due to its ready commercial availability. However, the enzyme inhibition assays may not be as good an indicator of activity as assays which are more similar to the intended clinical or cosmetic use, such as the MatTek Corporation's MelanoDerm™ Skin Model (a system which consists of normal, human-derived epidermal keratinocytes and melanocytes formed into a multilayered model of human epidermis).
MelanoDerm (Mel-300-B) assay was conducted according to the manufacturer's instruction (MatTek Corporation). Every other day, the test articles were administered into the EPI-100-NMM-113 culture medium, and positive control, 25 uL of 2% Kojic acid was applied topically. After 14 days, tissue viability and melanocyte morphology were visually verified and tissue melanin was extracted and quantitated against a standard curve. % melanin was calculated as follows: (MelaninDMSO−Melanincomp)/MelaninDMSO×100. The assay was performed for various compounds described herein, as well as for control compounds 4ER, 4IPR, 4HR, 4CHR, kojic acid, and hydroquinone.

B16F1 cells = assay: B16 Melanin Assay; assay type: cell-based; conditions: 1 mM Theophylline stimulated, 72 h, media absorbance 405 nm corrected for viability (Calcein-AM); compound concentration not stated
Protocol: After trypsinization, cells were seeded at 3,000 cells per well in a 96-well plate and allowed to attach overnight. 1 mM Theophylline was used to stimulate melanogenesis, and the compound of interest was added. […] (AbsDMSO/CalceinDMSO-[…]/CalceinDMSO×100. The assay was performed for various compounds described herein, as well as for control compounds 4ER, 4IPR, 4HR, 4CHR, 5MR kojic acid, and hydroquinone. Results are shown in Table 2.

[1] = test system: mushroom tyrosinase (Sigma T3824); assay: Mushroom Tyrosinase Inhibition Assay; assay type: biochemical; conditions: 10 μM compound, 300 μM L-Tyrosine, 84 units/mL enzyme, pH 6.5, 15 min at room temperature
Protocol: 10 μM compound, 300 μM L-Tyrosine, and 84 units/mL of mushroom tyrosinase (Sigma T3824) were combined into 0.05 M potassium monophosphate buffer at pH=6.5, and incubated for 15 min at room temperature. Absorbance was recorded at 490 nm. % tyrosinase inhibition was calculated as follows: (AbsDMSO−Abscmpd)/AbsDMSO×100. The assay was performed for various compounds described herein, as well as for control compounds 4-ethyl resorcinol (4ER), 4-isopropylresorcinol (4IPR), 4-hexylresorcinol (4HR), 4-cyclohexylresorcinol (4CHR), 5-methylresorcinol (5MR), kojic acid (KA), and hydroquinone (HQ), structures of which are shown below.

Cc1cc(O)cc(O)c1Cc1ccccc1 [4,5BnMR, 4-benzyl-5-methylbenzene-1,3-diol]
MatTek Assay (% Melanin), % Melanin 3D EpiDerm (MelanoDerm (Mel-300-B); 10 μM in culture medium): 82% | MatTek Assay (% Melanin), % Melanin 3D EpiDerm (MelanoDerm (Mel-300-B); 30 μM in culture medium): 61% | B16 Media Melanin (% Melanin), % Melanin B16 (B16F1 cells): 86% | Mushroom Tyrosinase (% remaining enzyme activity), % TYR Activity [1]: 97%

Oc1cc(O)c(Cc2ccccc2)c(C(F)(F)F)c1 [4,5BnTFMR, 2-Benzyl-1,5-dihydroxy-3-trifluoromethyl-benzene]
MatTek Assay (% Melanin), % Melanin 3D EpiDerm (MelanoDerm (Mel-300-B); 30 μM in culture medium): 75% | B16 Media Melanin (% Melanin), % Melanin B16 (B16F1 cells): 82% | Mushroom Tyrosinase (% remaining enzyme activity), % TYR Activity [1]: 93%

Oc1cc(O)c(C2CCCCC2)c(F)c1 [4,5CHFR, 4-cyclohexyl-5-fluorobenzene-1,3-diol]
MatTek Assay (% Melanin), % Melanin 3D EpiDerm (MelanoDerm (Mel-300-B); 10 μM in culture medium): 87% | MatTek Assay (% Melanin), % Melanin 3D EpiDerm (MelanoDerm (Mel-300-B); 30 μM in culture medium): 81% | B16 Media Melanin (% Melanin), % Melanin B16 (B16F1 cells): 51% | Mushroom Tyrosinase (% remaining enzyme activity), % TYR Activity [1]: 1%

Cc1cc(O)cc(O)c1C1CCCCC1 [4,5CHMR, 4-cyclohexyl-5-methylbenzene-1,3-diol]
MatTek Assay (% Melanin), % Melanin 3D EpiDerm (MelanoDerm (Mel-300-B); 10 μM in culture medium): 66% | MatTek Assay (% Melanin), % Melanin 3D EpiDerm (MelanoDerm (Mel-300-B); 30 μM in culture medium): 44% | B16 Media Melanin (% Melanin), % Melanin B16 (B16F1 cells): 58% | Mushroom Tyrosinase (% remaining enzyme activity), % TYR Activity [1]: 22%

Oc1cc(O)c(C2CCCCC2)c(C(F)(F)F)c1 [4,5CHTFMR]
MatTek Assay (% Melanin), % Melanin 3D EpiDerm (MelanoDerm (Mel-300-B); 10 μM in culture medium): 89% | B16 Media Melanin (% Melanin), % Melanin B16 (B16F1 cells): 65% | Mushroom Tyrosinase (% remaining enzyme activity), % TYR Activity [1]: 100%

Cc1cc(O)cc(O)c1C1CCCC1 [4,5CPMR, 4-cyclopentyl-5-methylbenzene-1,3-diol]
MatTek Assay (% Melanin), % Melanin 3D EpiDerm (MelanoDerm (Mel-300-B); 10 μM in culture medium): 65% | MatTek Assay (% Melanin), % Melanin 3D EpiDerm (MelanoDerm (Mel-300-B); 30 μM in culture medium): 55% | B16 Media Melanin (% Melanin), % Melanin B16 (B16F1 cells): 61% | Mushroom Tyrosinase (% remaining enzyme activity), % TYR Activity [1]: 71%

Cc1cc(O)cc(O)c1C1CC1 [4,5CPrMR, 4-cyclopropyl-5-methylbenzene-1,3-diol]
MatTek Assay (% Melanin), % Melanin 3D EpiDerm (MelanoDerm (Mel-300-B); 10 μM in culture medium): 99% | MatTek Assay (% Melanin), % Melanin 3D EpiDerm (MelanoDerm (Mel-300-B); 30 μM in culture medium): 82% | B16 Media Melanin (% Melanin), % Melanin B16 (B16F1 cells): 62% | Mushroom Tyrosinase (% remaining enzyme activity), % TYR Activity [1]: 30%

Oc1cc(O)c(C2CCCCC2)c(F)c1 [4,5EFR, 4-cyclohexyl-5-fluorobenzene-1,3-diol]
B16 Media Melanin (% Melanin), % Melanin B16 (B16F1 cells): 87% | Mushroom Tyrosinase (% remaining enzyme activity), % TYR Activity [1]: 3%

CCc1c(C)cc(O)cc1O [4,5EMR, 4-ethyl-5-methylbenzene-1,3-diol]
MatTek Assay (% Melanin), % Melanin 3D EpiDerm (MelanoDerm (Mel-300-B); 10 μM in culture medium): 102% | MatTek Assay (% Melanin), % Melanin 3D EpiDerm (MelanoDerm (Mel-300-B); 30 μM in culture medium): 79% | B16 Media Melanin (% Melanin), % Melanin B16 (B16F1 cells): 69% | Mushroom Tyrosinase (% remaining enzyme activity), % TYR Activity [1]: 93%

CCc1c(O)cc(O)cc1C(F)(F)F [4,5ETFMR, 2-Ethyl-1,5-dihydroxy-3-trifluoromethyl-benzene]
MatTek Assay (% Melanin), % Melanin 3D EpiDerm (MelanoDerm (Mel-300-B); 10 μM in culture medium): 81% | MatTek Assay (% Melanin), % Melanin 3D EpiDerm (MelanoDerm (Mel-300-B); 30 μM in culture medium): 66% | B16 Media Melanin (% Melanin), % Melanin B16 (B16F1 cells): 68%

CCCCCCc1c(C)cc(O)cc1O [4,5HMR, 4-hexyl-5-methylbenzene-1,3-diol]
MatTek Assay (% Melanin), % Melanin 3D EpiDerm (MelanoDerm (Mel-300-B); 10 μM in culture medium): 77% | MatTek Assay (% Melanin), % Melanin 3D EpiDerm (MelanoDerm (Mel-300-B); 30 μM in culture medium): 68% | B16 Media Melanin (% Melanin), % Melanin B16 (B16F1 cells): 78% | Mushroom Tyrosinase (% remaining enzyme activity), % TYR Activity [1]: 10%
